Laboratory results from ChEMBL document CHEMBL5316266, “Ligand-Based Design on the Dog-Bone-Shaped BIBR1532 Pharmacophoric Features and Synthesis of Novel Analogues as Promising Telomerase Inhibitors with In Vitro and In Vivo Evaluations” (J Med Chem, 2023).
≈ marks a conversion by molar mass, not a printed value.

Experiments:
Ehrlich [1] = assay: Anticancer activity against mouse solid Ehrlich carcinoma cells implanted in Swiss albino mouse assessed as decrease in serum ALT level at 5 mg/kg administered thrice per week for 2 weeks starting from day 7 post tumor implantation by biochemical assay relative to control; format: functional; set-up: scale not given: the % may be the effect or the level left
[2] = Toxicity in Swiss albino mouse implanted with mouse solid Ehrlich carcinoma assessed as portal tract inflammation in liver at 5 mg/kg administered thrice per week for 2 weeks starting from day 7 post tumor implantation by H and E staining based histopathological analysis; format: organism-based; details: in vivo, 336 h
Ehrlich [3] = assay: (§1) Anticancer activity against mouse solid Ehrlich carcinoma cells implanted in Swiss albino mouse assessed as decrease in serum albumin level at 5 mg/kg administered thrice per week for 2 weeks by biochemical assay tarting from day 7 post tumor implantation by biochemical assay relative to control; format: functional; set-up: scale not given: the % may be the effect or the level left
Ehrlich [4] = assay: (§2) Anticancer activity against mouse solid Ehrlich carcinoma cells implanted in Swiss albino mouse assessed as increase in monocyte count at 5 mg/kg administered thrice per week for 2 weeks starting from day 7 post tumor implantation by hematological assay (reference value: 7.42 +/- 0.52 %); format: functional
Ehrlich [5] = assay: as §1, with “total protein” for “albumin”; format: functional; set-up: scale not given: the % may be the effect or the level left
Ehrlich [6] = assay: Anticancer activity against mouse solid Ehrlich carcinoma cells implanted in Swiss albino mouse assessed as increase in neutrophil count at 5 mg/kg administered thrice per week for 2 weeks starting from day 7 post tumor implantation by hematological assay (reference value: 55.43 +/- 8.44 %); format: functional
Ehrlich [7] = assay: Anticancer activity against mouse solid Ehrlich carcinoma cells implanted in Swiss albino mouse assessed as increase in hemoglobin level at 5 mg/kg administered thrice per week for 2 weeks starting from day 7 post tumor implantation by hematological assay (reference value: 4.67 +/- 0.19 g/dl); format: functional
Ehrlich [8] = assay: Anticancer activity against mouse solid Ehrlich carcinoma cells implanted in Swiss albino mouse assessed as increase in lymphocyte count at 5 mg/kg administered thrice per week for 2 weeks starting from day 7 post tumor implantation by hematological assay (reference value: 35.57 +/- 8.34 %); format: functional
Ehrlich [9] = assay: Anticancer activity against mouse solid Ehrlich carcinoma cells implanted in Swiss albino mouse assessed as necrotic cells at 5 mg/kg administered thrice per week for 2 weeks starting from day 7 post tumor implantation by H and E staining based histopathological analysis relative to control; format: functional
Ehrlich [10] = assay: as §2, with “RBC” for “monocyte”, “count measured per million cells” for “count”, “2.93” for “7.42”, “0.18 10^6/ml)” for “0.52 %)”; format: functional
Ehrlich [11] = assay: Anticancer activity against mouse solid Ehrlich carcinoma implanted in Swiss albino mouse assessed as increase in tumor inhibition ratio at 5 mg/kg administered thrice per week for 2 weeks starting from day 7 post tumor implantation relative to control; format: functional; set-up: scale not given: the % may be the effect or the level left
[12] = Toxicity in Swiss albino mouse implanted with mouse solid Ehrlich carcinoma assessed as tubular injury at 5 mg/kg administered thrice per week for 2 weeks starting from day 7 post tumor implantation by H and E staining based histopathological analysis; format: organism-based; details: in vivo, 336 h
[13] = Toxicity in Swiss albino mouse implanted with mouse solid Ehrlich carcinoma assessed as hydropic degeneration of hepatocytes at 5 mg/kg administered thrice per week for 2 weeks starting from day 7 post tumor implantation by H and E staining based histopathological analysis; format: organism-based; details: in vivo, 336 h
Ehrlich [14] = assay: Anticancer activity against mouse solid Ehrlich carcinoma cells implanted in Swiss albino mouse assessed as decrease in serum AST level at 5 mg/kg administered thrice per week for 2 weeks starting from day 7 post tumor implantation by biochemical assay relative to control; format: functional; set-up: scale not given: the % may be the effect or the level left
[15] = Toxicity in Swiss albino mouse implanted with mouse solid Ehrlich carcinoma assessed as mesangial expansion at 5 mg/kg administered thrice per week for 2 weeks starting from day 7 post tumor implantation by H and E staining based histopathological analysis; format: organism-based; details: in vivo, 336 h
[16] = Toxicity in Swiss albino mouse implanted with mouse solid Ehrlich carcinoma assessed as confluent necrosis in liver at 5 mg/kg administered thrice per week for 2 weeks starting from day 7 post tumor implantation by H and E staining based histopathological analysis; format: organism-based; details: in vivo, 336 h
[17] = biological target: Telomerase reverse transcriptase (Homo sapiens) (UniProt O14746); assay: Inhibition of telomerase (unknown origin) by qRT-PCR analysis relative to control; set-up: concentration or dose not given beside the values; details: concentration not given here
Chain of Telomerase reverse transcriptase (Homo sapiens) (O14746 whole entry): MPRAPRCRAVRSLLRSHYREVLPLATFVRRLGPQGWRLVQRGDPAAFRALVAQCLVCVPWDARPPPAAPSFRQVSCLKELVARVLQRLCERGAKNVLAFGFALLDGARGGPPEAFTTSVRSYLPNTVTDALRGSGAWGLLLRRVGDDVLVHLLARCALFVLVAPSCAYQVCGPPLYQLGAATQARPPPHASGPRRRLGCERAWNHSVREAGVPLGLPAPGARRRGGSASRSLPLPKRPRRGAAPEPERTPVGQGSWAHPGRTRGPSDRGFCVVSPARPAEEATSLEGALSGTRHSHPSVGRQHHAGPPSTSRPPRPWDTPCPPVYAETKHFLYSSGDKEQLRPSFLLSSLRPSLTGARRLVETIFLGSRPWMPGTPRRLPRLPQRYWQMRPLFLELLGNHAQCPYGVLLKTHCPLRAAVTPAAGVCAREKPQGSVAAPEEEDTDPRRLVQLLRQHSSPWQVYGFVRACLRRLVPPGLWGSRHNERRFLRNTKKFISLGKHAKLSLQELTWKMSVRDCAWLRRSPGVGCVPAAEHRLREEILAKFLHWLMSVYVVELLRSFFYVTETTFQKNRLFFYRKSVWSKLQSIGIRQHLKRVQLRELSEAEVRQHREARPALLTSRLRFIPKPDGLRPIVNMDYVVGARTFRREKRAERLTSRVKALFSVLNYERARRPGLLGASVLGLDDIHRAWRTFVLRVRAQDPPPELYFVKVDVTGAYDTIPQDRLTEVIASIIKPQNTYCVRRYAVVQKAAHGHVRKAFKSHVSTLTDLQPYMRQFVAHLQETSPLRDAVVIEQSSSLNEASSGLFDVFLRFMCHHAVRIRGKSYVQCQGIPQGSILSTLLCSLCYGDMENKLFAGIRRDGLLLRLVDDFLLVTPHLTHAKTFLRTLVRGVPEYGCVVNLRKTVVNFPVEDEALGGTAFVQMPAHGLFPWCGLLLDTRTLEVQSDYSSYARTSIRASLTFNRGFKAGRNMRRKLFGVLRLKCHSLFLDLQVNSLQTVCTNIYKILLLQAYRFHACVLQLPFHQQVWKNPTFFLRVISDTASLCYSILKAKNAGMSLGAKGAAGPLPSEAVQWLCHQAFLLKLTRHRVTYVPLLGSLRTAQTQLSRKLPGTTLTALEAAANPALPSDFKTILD

MCF7 [18] = assay: Induction of apoptosis in human MCF7 cells assessed as total apoptotic cells incubated for 48 hrs by Annexin-V/FITC staining based flow cytometry (reference value: 1.73 %); format: functional
Ehrlich [19] = assay: Anticancer activity against mouse solid Ehrlich carcinoma implanted in Swiss albino mouse assessed as reduction in tumor weight at 5 mg/kg administered thrice per week for 2 weeks starting from day 7 post tumor implantation relative to DOX; format: functional; set-up: scale not given: the % may be the effect or the level left
Ehrlich [20] = assay: Anticancer activity against mouse solid Ehrlich carcinoma implanted in Swiss albino mouse assessed as reduction in tumor volume at 5 mg/kg administered thrice per week for 2 weeks starting from day 7 post tumor implantation relative to control; format: functional; set-up: scale not given: the % may be the effect or the level left
Ehrlich [21] = assay: Anticancer activity against mouse solid Ehrlich carcinoma implanted in Swiss albino mouse assessed as reduction in tumor weight at 5 mg/kg administered thrice per week for 2 weeks starting from day 7 post tumor implantation relative to control; format: functional; set-up: scale not given: the % may be the effect or the level left
Ehrlich [22] = assay: Anticancer activity against mouse solid Ehrlich carcinoma implanted in Swiss albino mouse assessed as reduction in tumor volume at 5 mg/kg administered thrice per week for 2 weeks starting from day 7 post tumor implantation relative to DOX; format: functional; set-up: scale not given: the % may be the effect or the level left
MCF7 [23] = assay: Cell cycle arrest in human MCF7 cells assessed as accumulation of cells at S phase at 3.1 uM incubated for 48 hrs by PI staining based flow cytometry (reference value: 28.71 %); format: functional
A549 = assay: Cytotoxicity against human A549 cells assessed as inhibition of cell growth incubated for 72 hrs by MTT assay; format: functional, cell-based; details: A549, 72 h
MCF7 [24] = assay: Cytotoxicity against human MCF7 cells assessed as inhibition of cell growth incubated for 72 hrs by MTT assay; format: functional, cell-based; details: MCF7, 72 h

SMILES: COc1cccc2c1C(=O)c1c(O)c3c(c(O)c1C2=O)C[C@@](O)(C(=O)CO)C[C@@H]3O[C@H]1C[C@H](N)[C@H](O)[C@H](C)O1 [DOXORUBICIN]
- Activity (Ehrlich [1]): 39.16%
- Activity [2]: Non-Toxic
- Activity (Ehrlich [3]): 35.71%
- Activity (Ehrlich [4]): 8.42%
- Activity (Ehrlich [5]): 48.4%
- Activity (Ehrlich [6]): 54.14%
- Activity (Ehrlich [7]): 7.34 g/dL
- Activity (Ehrlich [8]): 36.29%
- Activity (Ehrlich [9]): >90%
- Activity (Ehrlich [10]): 4.94 10^6/ml
- Activity (Ehrlich [11]): 60.4%
- Activity [12]: Toxic
- Activity [13]: Toxic
- Activity (Ehrlich [14]): 23.43%
- Activity [15]: Toxic
- Activity [16]: Toxic

SMILES: N#Cc1c(NC(=O)CSc2ccc(-c3ccc(Cl)cc3)nn2)sc2c1CCC2
- inhibition [17]: 10.8%

SMILES: Cc1ccc(-c2ccc(SCC(=O)Nc3sc4c(c3C#N)CCC4)nn2)cc1
- Activity (Ehrlich [1]): 36.12%
- Activity [2]: Toxic
- Activity (Ehrlich [3]): 28.31%
- Activity (MCF7 [18]): 42.51%
- Activity (Ehrlich [4]): 9.72%
- Activity (Ehrlich [5]): 55.54%
- Activity (Ehrlich [19]): 8.48%
- Activity (Ehrlich [20]): 62.12%
- Activity (Ehrlich [7]): 6.74 g/dL
- Activity (Ehrlich [21]): 74.34%
- Activity (Ehrlich [8]): 39.14%
- Activity (Ehrlich [9]): >90%
- Activity (Ehrlich [10]): 4.53 10^6/ml
- Activity (Ehrlich [11]): 62.12%
- Activity (Ehrlich [22]): 4.3%
- Activity [12]: Toxic
- Activity [13]: Toxic
- Activity (MCF7 [23]): 42.02%
- Activity (Ehrlich [14]): 29.77%
- IC50 (A549): 17.1 µg/mL (≈ 42 µM)
- Activity [15]: Toxic
- IC50 (MCF7 [24]): 9.47 µg/mL (≈ 23.3 µM)
- Activity [16]: Non-Toxic

SMILES: N#Cc1c(NC(=O)CSc2ccc(-c3ccc(F)cc3)nn2)sc2c1CCC2
- inhibition [17]: 10.8%

SMILES: COc1ccc(-c2ccc(SCC(=O)Nc3sc4c(c3C#N)CCC4)nn2)cc1
- inhibition [17]: 10.8%

SMILES: Cc1ccc(-c2ccc(SCC(=O)Nc3sc4c(c3C#N)CCCC4)nn2)cc1
- inhibition [17]: 49.1%
- IC50 (A549): 63.8 µg/mL (≈ 152 µM)
- IC50 (MCF7 [24]): 34.5 µg/mL (≈ 82.1 µM)

SMILES: N#Cc1c(NC(=O)CSc2ccc(-c3ccc(Cl)cc3)nn2)sc2c1CCCC2
- inhibition [17]: 10.8%

SMILES: N#Cc1c(NC(=O)CSc2ccc(-c3ccc(F)cc3)nn2)sc2c1CCCC2
- inhibition [17]: 10.8%

SMILES: N#Cc1c(NC(=O)CSc2ccc(-c3ccccc3)nn2)sc2c1CCC2
- inhibition [17]: 10.8%

SMILES: N#Cc1c(NC(=O)CSc2ccc(-c3ccc(Br)cc3)nn2)sc2c1CCCC2
- inhibition [17]: 10.8%

SMILES: COc1ccc(-c2ccc(SCC(=O)Nc3sc4c(c3C#N)CCCC4)nn2)cc1
- inhibition [17]: 10.8%

SMILES: N#Cc1c(NC(=O)CSc2ccc(-c3ccccc3)nn2)sc2c1CCCC2
- inhibition [17]: 10.8%

SMILES: N#Cc1c(NC(=O)CSc2ccc(-c3ccc(Br)cc3)nn2)sc2c1CCC2
- inhibition [17]: 10.8%
